Measurements from patent US20030065039A1, “Biologically active 1,3-bis-aromatic-prop-2-en-1-ones, 1,3-bis-aromatic-propan-1-ones, and 1,3-bis-aromatic-prop-2-yn-1-ones” (Statens Serum Institute, priority 1997, published 2003).
Like-named read-outs stand apart in the source and are kept apart here.

Tests used:
[1] = molecular target: T1, Helicobacter pylori fumarate reductase (Helicobacter pylori, UniProt O06913); format: biochemical; settings: Control 19.2 ± 2.5
T1 construct: Membrane associated proteins were solubilized from the pellet in 150 mM KCl, pH 7.0; endogenous in cells; host or cells: Helicobacter pylori 007 strain; KCl-solubilised fraction (or sonicate supernatant)
T1 sequence (O06913 1-714): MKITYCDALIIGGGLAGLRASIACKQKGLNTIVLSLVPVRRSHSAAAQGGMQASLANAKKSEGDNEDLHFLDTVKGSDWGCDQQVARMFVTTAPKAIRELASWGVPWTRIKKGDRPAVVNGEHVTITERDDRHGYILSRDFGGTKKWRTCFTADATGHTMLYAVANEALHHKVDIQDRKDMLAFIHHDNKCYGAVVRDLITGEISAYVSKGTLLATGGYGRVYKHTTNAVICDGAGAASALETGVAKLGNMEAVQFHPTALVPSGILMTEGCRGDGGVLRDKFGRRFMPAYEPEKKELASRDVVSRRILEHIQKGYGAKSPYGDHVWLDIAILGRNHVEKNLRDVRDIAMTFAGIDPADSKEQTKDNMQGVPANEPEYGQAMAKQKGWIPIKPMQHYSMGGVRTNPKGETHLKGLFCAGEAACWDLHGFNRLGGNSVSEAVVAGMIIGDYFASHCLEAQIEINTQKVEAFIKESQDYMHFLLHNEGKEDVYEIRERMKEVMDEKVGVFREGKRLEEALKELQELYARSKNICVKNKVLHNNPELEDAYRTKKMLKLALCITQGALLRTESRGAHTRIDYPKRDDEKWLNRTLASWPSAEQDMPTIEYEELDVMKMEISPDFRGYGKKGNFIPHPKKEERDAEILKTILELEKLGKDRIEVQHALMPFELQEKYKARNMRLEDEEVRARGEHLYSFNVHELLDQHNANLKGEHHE
T1 sequence (O06914 1-245 partner): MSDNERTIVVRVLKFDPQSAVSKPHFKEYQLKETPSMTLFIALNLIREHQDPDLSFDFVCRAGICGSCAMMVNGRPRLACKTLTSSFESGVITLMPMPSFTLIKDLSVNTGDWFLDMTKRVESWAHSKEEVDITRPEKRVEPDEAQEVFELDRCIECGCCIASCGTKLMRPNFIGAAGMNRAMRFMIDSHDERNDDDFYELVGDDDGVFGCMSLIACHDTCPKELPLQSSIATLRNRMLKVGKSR
T1 sequence (O06912 1-255 partner): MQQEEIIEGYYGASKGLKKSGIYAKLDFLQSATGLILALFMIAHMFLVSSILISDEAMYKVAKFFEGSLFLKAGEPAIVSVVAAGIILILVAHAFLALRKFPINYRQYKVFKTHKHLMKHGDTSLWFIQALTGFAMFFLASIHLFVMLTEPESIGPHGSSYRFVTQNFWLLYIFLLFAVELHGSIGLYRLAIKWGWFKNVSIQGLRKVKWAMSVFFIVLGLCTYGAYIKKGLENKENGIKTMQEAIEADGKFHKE
Protocol: 1) Extraction of soluble FRD: Bacteria were harvested by centrifugation at 18,000 g for 10 min at 4° C., and were washed 2 times in an isotonic phosphate saline buffer (50 mM sodium phosphate, pH 7.2, 90 mM NaCl, 5 mM Kcl). Bacteria were lysed in 5 mM Tris-HCl, pH 7.4, for 15 minutes, and centrifuged 18,000 g for 10 minutes. Membrane associated proteins were solubilized from the pellet in 150 mM KCl, pH 7.0, in ice bath for 60 min, and then the supernatant was collected after centrifugation (18,000 g for 10 minutes) for the measurement of FRD activity.
2) Extraction of FRD by sonication: Bacteria were harvested by centrifugation at 18,000 g for 10 min at 4° C., were sonicated, and then the supernatant was collected after centrifugation (18,000 g for 10 minutes) for the measurement of FRD activity.
NADH-FRD activity was determined as the rate of NADH-oxidation upon addition of 1 mM fumarate in the KCl-solubilized fraction or sonicated fraction. The reaction was monitored spectrophotometrically at 340 nm (∈=6.2 mM^−1 cm^−1) using 100 μM NADH and usually 3 mg protein in both reference and sample cuvettes. The measurement was carried out in a Shimadzu UV-190 double-beam spectrophotometer. Protein concentrations were determined using a Bio-Rad protein assay (Bio-Rad Laboratories, 200 Alfred Nobel Dr. Hercules, Calif. 94547, USA).
KCl solubilised fraction of bacteria was incubated with different concentrations of various oxygenated chalcones at 28° C. and the remaining FRD activity was measured. The IC50 values were determined as the concentration at which 50% of the activity was inhibited.

Vero cell cultures = assay: Cytotoxicity in Vero cell cultures; format: cell-based; settings: Vero cells; values given as fractions, footnote a not given
Text: In the following is reported the results from a Vero cell culture infected with different viruses. The cell culture used as well as the methods applied are well known to a person skilled in the art.

[2] = test system: cytomegalovirus AD-169 strain; assay: Activity against cytomegalovirus in HEL cells (plaque formation); format: cell-based; settings: virus plaque formation reduced by 50%, 100 PFU, values given as fractions
Protocol: (§1) IC50 values are determined by the virus plaque formation and/or the virus cytopathic assay using standard methods well-known in the art.

[3] = test system: cytomegalovirus Davis strain; assay: as above; format: cell-based; settings: virus plaque formation reduced by 50%, 100 PFU, values given as fractions
Protocol: as §1

[4] = test system: human embryonic lung (HEL) cells; assay: Cytotoxicity in human embryonic lung (HEL) cells; format: cell-based; settings: HEL cell growth reduced by 50%; values given as fractions
TNF-α [5] = assay: TNF-α in lysate of stimulated human mononuclear cells (ELISA); format: cell-based; settings: cells preincubated with compound, stimulated with SPAG or LPS
Protocol: Therefore, experiments were performed to examine the effect of Licochalcone A and SBC-35ma on secretion of TNF-α from the stimulated cells. These experiments included detection of the cytokines in the cell lysate by ELISA and staining of the intracellular cytokines by using monoclonal antibodies against these cytokines and cytokine receptors.

TNF-α [6] = assay: Extracellular TNF-α of human mononuclear cells (supernatant); format: cell-based; settings: for inhibition at 3.125 µg/mL: compound 3.125 μg/ml; for inhibition at 6.25 µg/mL: compound 6.25 μg/ml; for inhibition at 12.5 µg/mL: compound 12.5 μg/ml
Protocol: Incubation condition: Cells and mitogen added at the same time and the compound solution added immediately after in polypropylene tubes and incubated at 37° C. in CO2 incubator overnight. The following day the cells and the supernatant were harvested for TNF-α determination. Incubation condition: Cells and mitogen added at the same time and the compound solution added immediately after in polypropylene tubes and incubated at 37° C. in CO2 incubator overnight. The following day the cells and the supernatant were harvested for TNF-α determination.

[7] = compound 50 (unit not given), mean±SD, three experiments

Row | SMILES | FRD activity ([1]; compound 1 (unit not given)) | FRD activity ([1]; compound 5 (unit not given)) | FRD activity ([1]; compound 10 (unit not given)) | FRD activity ([1]; compound 25 (unit not given)) | FRD activity [1, 7] | Minimum Cytotoxic Concentration (Vero cell cultures) | Antiviral activity IC50, AD-169 strain, Assay 1 [2] | Antiviral activity IC50, Davis strain, Assay 1 [3] | Cytotoxicity CC50 [4] | intracellular TNF-α in the cell lysate (ELISA) (TNF-α [5]) | inhibition at 3.125 µg/mL (TNF-α [6]; 1b Experiment 2, LPS 1 μg/ml) | inhibition at 6.25 µg/mL (TNF-α [6]; 1b Experiment 2, LPS 1 μg/ml) | inhibition at 12.5 µg/mL (TNF-α [6]; 1b Experiment 2, LPS 1 μg/ml) | inhibition at 3.125 µg/mL (TNF-α [6]; 1b Experiment 3, LPS 1 μg/ml) | inhibition at 6.25 µg/mL (TNF-α [6]; 1b Experiment 3, LPS 1 μg/ml) | inhibition at 12.5 µg/mL (TNF-α [6]; 1b Experiment 3, LPS 1 μg/ml) | inhibition at 3.125 µg/mL (TNF-α [6]; 1b Experiment 4, LPS 1 μg/ml) | inhibition at 6.25 µg/mL (TNF-α [6]; 1b Experiment 4, LPS 1 μg/ml) | inhibition at 12.5 µg/mL (TNF-α [6]; 1b Experiment 4, LPS 1 μg/ml)
1 | C=CC(C)(C)c1cc(/C=C/C(=O)c2ccc(O)cc2)c(OC)cc1O [Licochalcone A] | 14.5 ± 2.9 mu/mg of protein | 6.8 ± 1.7 mu/mg of protein | 2.5 ± 1.1 mu/mg of protein | 0.9 ± 0.6 mu/mg of protein | 0.0 mu/mg of protein | <1/100 | 1/15000 | 1/50000 | 1/600 | no intracellular TNF-α present |  |  |  |  |  |  |  |  | 
2 | COc1cc(/C=C/C(=O)c2ccc(C3CCCCC3)cc2)cc(OC)c1 [PH104, 3,5-dimethoxy-4′-cyclohexylchalcone] |  |  |  |  |  |  |  |  |  |  | 82% | 90% | 93% | 54% | 70% | 76% | 0% | 78% | 86%
3 | COc1cc(/C=C/C(=O)c2ccc([N+](=O)[O-])cc2)cc(OC)c1 [PH105, 4′-nitro-3,5-dimethoxychalcone] | 15.8 ± 2.0 mu/mg of protein | 8.5 ± 1.8 mu/mg of protein | 4.1 ± 1.5 mu/mg of protein | 1.7 ± 0.7 mu/mg of protein | 0.0 mu/mg of protein |  |  |  |  |  |  |  |  |  |  |  |  |  | 
4 | COc1cc(/C=C/C(=O)c2ccccc2F)cc(OC)c1 [PH135, 2′-fluoro-3,5-dimethoxychalcone] |  |  |  |  |  |  |  |  |  |  | 96% | 94% | 94% | 93% | 92% | 94% | 99% | 99% | 98%
5 | C=CCOc1ccc(C(=O)/C=C/c2cc(OC)cc(OC)c2)cc1 [SBC-35ma, 3,5-dimethoxy-4′-allyloxychalcone] |  |  |  |  |  | <1/100 | <1/60 | <1/60 | <1/60 | no intracellular TNF-α present |  |  |  |  |  |  |  |  | 
